Data from ChEMBL document CHEMBL1201862, “PubChem BioAssay data set” (2004).
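Protocol summary: plate cells (96-well), add compound at 5 concentrations, incubate 48 h, interpolate endpoints linearly. GI50 is the concentration that inhibits growth by half.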 Activity calls are given as the source filed them. Rule as the data show it: active = GI50 up to about 1.1 µM and inactive = higher.

Experiments:
Assay in all cases: DTP human tumour cell line panel, 48 h
SNB-19 = system: SNB-19
CCRF-CEM = system: CCRF-CEM
Malme-3M = system: Malme-3M
OVCAR-4 = system: OVCAR-4
U-251 = system: U-251
RPMI-8226 = system: RPMI-8226
HOP-92 = system: HOP-92
NCI-H460 = system: NCI-H460
OVCAR-8 = system: OVCAR-8
UACC-62 = system: UACC-62
NCI-H226 = system: NCI-H226
SNB-75 = system: SNB-75
786-0 = system: 786-0
XF498 = system: XF498
COLO 205 = system: COLO 205

Row | SMILES | GI50 (SNB-19) | GI50 (CCRF-CEM) | GI50 (Malme-3M) | GI50 (OVCAR-4) | GI50 (U-251) | GI50 (RPMI-8226) | GI50 (HOP-92) | GI50 (NCI-H460) | GI50 (OVCAR-8) | GI50 (UACC-62) | GI50 (NCI-H226) | GI50 (SNB-75) | GI50 (786-0) | GI50 (XF498) | GI50 (COLO 205)
1 | COc1c(Cl)c(Cl)c(OC)c2c1C(=O)C=CC2=O | 32.1 µM (inactive) | 3.83 µM (inactive) | 15.1 µM (inactive) | 15.3 µM (inactive) | 20.7 µM (inactive) | 18.2 µM (inactive) | 15.3 µM (inactive) | 37.8 µM (inactive) | 17.1 µM (inactive) | 15.6 µM (inactive) | 33.5 µM (inactive) | 21.4 µM (inactive) | 17.1 µM (inactive) | 16.9 µM (inactive) | 16.2 µM (inactive)
2 | CCN(CC)CCC(=O)N1CCc2c([nH]c3ccccc23)C1c1cccnc1 (configuration not stated) | > 100 µM (inactive) | > 100 µM (inactive) | – | > 100 µM (inactive) | > 100 µM (inactive) | > 100 µM (inactive) | 68.9 µM (inactive) | > 100 µM (inactive) | > 100 µM (inactive) | > 100 µM (inactive) | – | > 100 µM (inactive) | > 100 µM (inactive) | > 100 µM (inactive) | –
3 | CCCN(CCC)c1c([N+](=O)[O-])cc(C(=O)N(CCO)CCO)cc1[N+](=O)[O-] | – | > 100 µM (inactive) | > 100 µM (inactive) | > 100 µM (inactive) | > 100 µM (inactive) | > 100 µM (inactive) | – | > 100 µM (inactive) | > 100 µM (inactive) | – | > 100 µM (inactive) | > 100 µM (inactive) | > 100 µM (inactive) | 97.1 µM (inactive) | > 100 µM (inactive)
4 | CCOc1ccc(NC(=O)/C(=C/c2ccccc2)C(C)=O)cc1 | 12.1 µM (inactive) | 2.87 µM (inactive) | 16.5 µM (inactive) | 13.4 µM (inactive) | 12.6 µM (inactive) | 2.94 µM (inactive) | 14.1 µM (inactive) | 17.4 µM (inactive) | 12.1 µM (inactive) | 5.04 µM (inactive) | 13.2 µM (inactive) | 4.59 µM (inactive) | 12.2 µM (inactive) | 14.4 µM (inactive) | 17.2 µM (inactive)
5 | O=C(Cc1ccc(F)cc1)NC1=C(Cl)C(=O)c2ccccc2C1=O | 5.58 µM (inactive) | 1.71 µM (inactive) | 2.77 µM (inactive) | 2.06 µM (inactive) | 3.07 µM (inactive) | 0.262 µM (active) | 1.69 µM (inactive) | 3.47 µM (inactive) | 1.92 µM (inactive) | 2.53 µM (inactive) | 3.4 µM (inactive) | 2.5 µM (inactive) | 6.58 µM (inactive) | 1.76 µM (inactive) | 3.66 µM (inactive)
6 | COc1ccc2nc(NC(=O)C(=O)CC(=O)c3ccc([N+](=O)[O-])cc3)sc2c1 | > 100 µM (inactive) | > 100 µM (inactive) | > 100 µM (inactive) | > 100 µM (inactive) | > 100 µM (inactive) | > 100 µM (inactive) | > 100 µM (inactive) | > 100 µM (inactive) | > 100 µM (inactive) | > 100 µM (inactive) | > 100 µM (inactive) | > 100 µM (inactive) | > 100 µM (inactive) | > 100 µM (inactive) | > 100 µM (inactive)
7 | CC[C@]1(O)C(=O)OCc2c1cc1n(c2=O)Cc2cc3c(N)cccc3nc2-1 | > 100 µM (inactive) | > 100 µM (inactive) | > 100 µM (inactive) | > 100 µM (inactive) | > 100 µM (inactive) | > 100 µM (inactive) | > 100 µM (inactive) | > 100 µM (inactive) | > 100 µM (inactive) | > 100 µM (inactive) | > 100 µM (inactive) | 20.5 µM (inactive) | > 100 µM (inactive) | > 100 µM (inactive) | > 100 µM (inactive)
8 | C[N+](C)(C)CCc1ccccc1 | > 100 µM (inactive) | > 100 µM (inactive) | > 100 µM (inactive) | > 100 µM (inactive) | > 100 µM (inactive) | > 100 µM (inactive) | > 100 µM (inactive) | > 100 µM (inactive) | > 100 µM (inactive) | > 100 µM (inactive) | > 100 µM (inactive) | > 100 µM (inactive) | > 100 µM (inactive) | > 100 µM (inactive) | > 100 µM (inactive)
9 | Cc1ccc(C(=O)O/N=C2/CCCC/C2=C\c2ccccc2)cc1 | > 100 µM (inactive) | 29.2 µM (inactive) | 14.4 µM (inactive) | 36.9 µM (inactive) | 38.3 µM (inactive) | 77.8 µM (inactive) | 54.5 µM (inactive) | > 100 µM (inactive) | 37.2 µM (inactive) | 41.5 µM (inactive) | > 100 µM (inactive) | 33.5 µM (inactive) | > 100 µM (inactive) | 39.4 µM (inactive) | 95.3 µM (inactive)
10 | O=C(CC(=O)n1nc(-c2ccccc2)c(/N=N/c2ccc([N+](=O)[O-])cc2)c1-c1ccccc1)Nc1ccc(Cl)cc1 | 26.4 µM (inactive) | 15.6 µM (inactive) | 19 µM (inactive) | 34.2 µM (inactive) | 18.9 µM (inactive) | 30.2 µM (inactive) | 16.8 µM (inactive) | 30.1 µM (inactive) | 35.8 µM (inactive) | 2.56 µM (inactive) | 22.4 µM (inactive) | 29 µM (inactive) | 34.8 µM (inactive) | 26.2 µM (inactive) | 18 µM (inactive)
11 | C(=C\c1c2oc(-c3ccccc3)cc(-c3ccccc3)c-2c2ccccc12)/C=C1\c2ccccc2-c2c(-c3ccccc3)cc(-c3ccccc3)[o+]c21.[O-][Cl+3]([O-])([O-])[O-] | > 100 µM (inactive) | > 100 µM (inactive) | > 100 µM (inactive) | > 100 µM (inactive) | > 100 µM (inactive) | > 100 µM (inactive) | > 100 µM (inactive) | > 100 µM (inactive) | > 100 µM (inactive) | > 100 µM (inactive) | > 100 µM (inactive) | 45.9 µM (inactive) | > 100 µM (inactive) | > 100 µM (inactive) | > 100 µM (inactive)
12 | CC(SC(=S)N1CCOCC1)c1cc2oc(=O)n(C)c2cc1Cl (configuration not stated) | > 100 µM (inactive) | 19.8 µM (inactive) | > 100 µM (inactive) | > 100 µM (inactive) | > 100 µM (inactive) | 58.2 µM (inactive) | > 10 µM (inactive) | > 100 µM (inactive) | > 100 µM (inactive) | > 100 µM (inactive) | – | 76 µM (inactive) | > 100 µM (inactive) | > 100 µM (inactive) | > 100 µM (inactive)
13 | CCOC(=O)C(C(O)c1ccc([N+](=O)[O-])cc1)P(=O)(OCC)OCC (configuration not stated) | > 100 µM (inactive) | 35.5 µM (inactive) | > 100 µM (inactive) | > 100 µM (inactive) | > 100 µM (inactive) | 32.9 µM (inactive) | 34 µM (inactive) | > 100 µM (inactive) | 95.1 µM (inactive) | 52.1 µM (inactive) | > 100 µM (inactive) | 35.4 µM (inactive) | > 100 µM (inactive) | > 100 µM (inactive) | –
14 | CCOC(=O)c1ccc(/N=C/c2ccc(N(CCC#N)S(=O)(=O)c3ccccc3)cc2C)cc1 | > 100 µM (inactive) | 36.6 µM (inactive) | 53.8 µM (inactive) | 39.4 µM (inactive) | 97.1 µM (inactive) | 36.2 µM (inactive) | – | – | > 100 µM (inactive) | 19.4 µM (inactive) | – | 32.4 µM (inactive) | > 100 µM (inactive) | > 100 µM (inactive) | 20.4 µM (inactive)
15 | O=c1oc2ccccc2[n+]([O-])c1-c1ccccc1 | > 100 µM (inactive) | > 100 µM (inactive) | > 100 µM (inactive) | > 100 µM (inactive) | > 100 µM (inactive) | > 100 µM (inactive) | > 100 µM (inactive) | > 100 µM (inactive) | > 100 µM (inactive) | > 100 µM (inactive) | > 100 µM (inactive) | 49.7 µM (inactive) | > 100 µM (inactive) | > 100 µM (inactive) | > 100 µM (inactive)
16 | CN(C)C=C1C(=O)N(C)C(=O)N(C)C1=O | > 100 µM (inactive) | > 100 µM (inactive) | > 100 µM (inactive) | > 100 µM (inactive) | > 100 µM (inactive) | > 100 µM (inactive) | > 100 µM (inactive) | > 100 µM (inactive) | > 100 µM (inactive) | > 100 µM (inactive) | > 100 µM (inactive) | > 100 µM (inactive) | > 100 µM (inactive) | > 100 µM (inactive) | –
17 | C=C1C(=O)OC2C1C(OC(=O)/C(=C/C)COC(C)=O)CC1(CO1)C1C(OC(=O)/C(=C/C)CO)C=C(C)C21 (configuration not stated) | 3.36 µM (inactive) | 0.333 µM (active) | 1.78 µM (inactive) | 2.86 µM (inactive) | 15.1 µM (inactive) | 0.655 µM (active) | – | 6.98 µM (inactive) | 0.564 µM (active) | 1.59 µM (inactive) | 1.65 µM (inactive) | 2.26 µM (inactive) | 1.66 µM (inactive) | 1.45 µM (inactive) | 1.09 µM (active)
18 | C=C/C=C(\NC(=O)C(Cl)(Cl)Cl)[Si](C)(C)C | > 100 µM (inactive) | > 100 µM (inactive) | > 100 µM (inactive) | > 100 µM (inactive) | > 100 µM (inactive) | > 100 µM (inactive) | > 100 µM (inactive) | > 100 µM (inactive) | > 100 µM (inactive) | > 100 µM (inactive) | > 100 µM (inactive) | > 100 µM (inactive) | > 100 µM (inactive) | > 100 µM (inactive) | > 100 µM (inactive)
19 | Cc1c2cc[n+](C)cc2c(C)c2c1[nH]c1ccc(O)c(OCC(F)(F)F)c12 | 0.218 µM (active) | 4.97 µM (inactive) | 1.63 µM (inactive) | 1.26 µM (inactive) | 0.301 µM (active) | 2.22 µM (inactive) | 4.91 µM (inactive) | 1.51 µM (inactive) | 1.85 µM (inactive) | 5.66 µM (inactive) | 0.432 µM (active) | 0.188 µM (active) | 1.46 µM (inactive) | 1.2 µM (inactive) | 1.77 µM (inactive)
